Measured values from article PMC9305623, “Next generation GLP-1/GIP/glucagon triple agonists normalize body weight in obese mice” (Molecular Metabolism, 2022).

Assays:
hGLP-1 Receptor = target: T1, hGLP-1 Receptor (Homo sapiens, UniProt P43220); assay: Receptor activation: cAMP production by CRE-luciferase reporter in stably transfected BHK cells; type: cell-based; settings: compared to the native ligand for the receptor
T1 construct: expressed in transfected cells; host or cells: baby hamster kidney (BHK) cells, stably transfected, with CRE-firefly luciferase reporter
T1 sequence (P43220 24-463): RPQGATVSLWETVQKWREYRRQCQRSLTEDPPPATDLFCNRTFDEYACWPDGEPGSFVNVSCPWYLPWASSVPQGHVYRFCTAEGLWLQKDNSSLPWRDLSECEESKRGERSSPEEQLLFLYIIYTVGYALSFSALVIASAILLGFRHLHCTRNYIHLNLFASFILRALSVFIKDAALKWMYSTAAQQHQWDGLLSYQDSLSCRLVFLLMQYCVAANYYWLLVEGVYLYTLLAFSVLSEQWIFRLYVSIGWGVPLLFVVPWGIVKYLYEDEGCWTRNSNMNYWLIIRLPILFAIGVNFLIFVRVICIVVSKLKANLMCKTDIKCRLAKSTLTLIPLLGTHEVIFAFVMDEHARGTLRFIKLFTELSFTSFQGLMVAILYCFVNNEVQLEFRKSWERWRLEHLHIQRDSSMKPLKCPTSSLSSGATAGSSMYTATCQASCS
Experimental: (§1) Cyclic AMP (cAMP) production was assessed as a proxy for receptor activation using stably transfected baby hamster kidney (BHK) cell lines expressing the DNA for one individual receptor (GLP-1R, GIPR, GcgR; human- or mouse-specific sequence) and the DNA for the firefly luciferase reporter gene linked to the cAMP response element (CRE). The cells were kept in continuous culture at 37 °C and 5% CO2 in Dulbecco's Modified Eagle Medium (DMEM) supplemented with 10% heat-inactivated fetal bovine serum (HI-FBS), 300 μg/mL hygromycin, and 500 μg/mL G418; for cell lines expressing GIPR, the G418 concentration was lowered to 400 μg/mL. Cells were plated in a 96-well poly-D-lysine-coated plate at 5,000 cells per well in growth media and incubated overnight at 37 °C with 5% CO2. After the overnight incubation, the media was removed, the plate was washed once in Dulbecco's phosphase-buffered saline (DPBS), and 50 μL of assay buffer (DMEM without phenol red, 10 mM HEPES, 1x Glutamax, 1% ovalbumin, 0.1% Pluronic F-68) was added to each well. […] Aliquots of the dilution curves were added to the cell plate in a volume of 50 μL per well resulting in final assay concentrations ranging from 1 × 10^−14 to 1 × 10^−7 M. The assay plate was incubated for 3 h at 37 °C and 5% CO2. After the incubation, the assay plate was washed once with DPBS. A 100 μL aliquot of DPBS was added to each well followed by 100 μL of steadylite plus reagent (PerkinElmer). The assay plate was covered to protect reagent from light, shaken at 250 rpm at room temperature for 30 min, and read in a microtiter plate reader. EC50 values were calculated using Prism software (GraphPad) with the nonlinear regression log(agonist) vs. response. A minimum of two replicates were measured for each sample.

hGIP Receptor = target: T2, hGIP Receptor (Homo sapiens, UniProt P48546); assay: as above; type: cell-based; settings: compared to the native ligand for the receptor
T2 construct: expressed in transfected cells; host or cells: baby hamster kidney (BHK) cells, stably transfected, with CRE-firefly luciferase reporter
T2 sequence (P48546 22-466): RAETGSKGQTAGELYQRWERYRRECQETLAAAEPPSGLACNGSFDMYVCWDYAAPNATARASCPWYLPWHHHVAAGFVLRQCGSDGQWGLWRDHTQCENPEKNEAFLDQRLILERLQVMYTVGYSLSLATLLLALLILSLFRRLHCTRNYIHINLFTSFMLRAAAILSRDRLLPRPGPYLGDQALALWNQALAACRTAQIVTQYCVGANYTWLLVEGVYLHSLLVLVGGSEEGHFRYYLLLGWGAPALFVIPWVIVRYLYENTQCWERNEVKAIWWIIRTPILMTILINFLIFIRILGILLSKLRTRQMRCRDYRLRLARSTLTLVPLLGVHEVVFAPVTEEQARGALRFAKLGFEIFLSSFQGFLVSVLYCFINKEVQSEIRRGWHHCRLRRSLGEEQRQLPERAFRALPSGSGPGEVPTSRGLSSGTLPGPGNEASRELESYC
Experimental: as §1

hGcg Receptor = target: T3, hGcg Receptor (Homo sapiens, UniProt P47871); assay: as above; type: cell-based; settings: compared to the native ligand for the receptor
T3 construct: expressed in transfected cells; host or cells: baby hamster kidney (BHK) cells, stably transfected, with CRE-firefly luciferase reporter
T3 sequence (P47871 26-477): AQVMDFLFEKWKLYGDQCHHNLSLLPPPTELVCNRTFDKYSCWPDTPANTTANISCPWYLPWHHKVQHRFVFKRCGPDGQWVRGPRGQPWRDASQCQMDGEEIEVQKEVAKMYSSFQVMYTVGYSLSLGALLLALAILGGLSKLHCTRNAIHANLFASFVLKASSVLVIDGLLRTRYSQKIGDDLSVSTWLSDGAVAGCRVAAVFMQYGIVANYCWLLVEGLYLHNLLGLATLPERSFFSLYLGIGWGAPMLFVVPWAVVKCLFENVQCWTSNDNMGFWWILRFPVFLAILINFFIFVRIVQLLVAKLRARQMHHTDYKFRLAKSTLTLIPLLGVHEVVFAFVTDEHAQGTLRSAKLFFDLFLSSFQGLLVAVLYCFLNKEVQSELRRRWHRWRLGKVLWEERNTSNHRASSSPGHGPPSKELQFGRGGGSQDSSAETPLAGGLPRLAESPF
Experimental: as §1

in vivo = assay: in vivo; parameters: species or system Göttingen minipigs; settings: female, Göttingen, minipig, iv, 2 nmol/kg
Experimental: Studies were conducted in accordance with the Protection of Animals Act, the Act on Experiments on Animals, and the Standard Operating Procedures for Experiments on Animals at Novo Nordisk A/S. The experiments were performed under the supervision and approval of the Danish Government Animal Experiments Inspectorate and the Novo Nordisk Ethical Review Counsel. Female Göttingen minipigs (Ellegaard Göttingen Minipigs A/S), 7–14 months old and weighing 16–35 kg, were housed individually and fed once daily with a restricted SDS minipig diet (Special Diets Services). At least one week before the study, two permanent central venous catheters were implanted in the caudal vena cava of each animal. The animals were fasted for approximately 18 h before dosing and 4 h after dosing but had ad libitum access to water during the whole period. Test compounds dissolved to a concentration of 20–40 nmol/mL in a vehicle (pH 7.4) containing 0.025% polysorbate-20, 10 mM sodium phosphate, and 250 mM glycerol were administered via an intravenous injection through one catheter at a dose of 2 nmol/kg. Blood samples were collected in 8 mM aqueous EDTA for up to 14 days post dosing, preferably through the other catheter, then centrifuged at 4 °C and ∼2000g for 10 min. Plasma was isolated and immediately frozen until RP-HPLC/MS analysis. Individual plasma concentration–time profiles were analysed by a non-compartmental model in Phoenix WinNonLin software (Pharsight Inc.), and the resulting terminal half-lives were determined at the harmonic mean.

SMILES	hGLP-1 Receptor Relative Potency % (hGLP-1 Receptor)	hGIP Receptor Relative Potency % (hGIP Receptor)	hGcg Receptor Relative Potency % (hGcg Receptor)	Vd (in vivo)	clearance (in vivo)
CC[C@H](C)[C@H](NC(=O)[C@H](CO)NC(=O)[C@H](Cc1ccc(O)cc1)NC(=O)[C@H](CC(=O)O)NC(=O)[C@H](CO)NC(=O)[C@@H](NC(=O)[C@H](Cc1ccccc1)NC(=O)[C@@H](NC(=O)CNC(=O)[C@H](CCC(N)=O)NC(=O)C(C)(C)NC(=O)[C@@H](N)Cc1ccc(O)cc1)[C@@H](C)O)[C@@H](C)O)C(=O)N[C@@H](Cc1ccc(O)cc1)C(=O)N[C@@H](CC(C)C)C(=O)N[C@@H](CC(=O)O)C(=O)N[C@@H](CCCCNC(=O)COCCOCCNC(=O)COCCOCCNC(=O)CC[C@H](NC(=O)CCCCCCCCCCCCCCCCCCC(=O)O)C(=O)O)C(=O)N[C@@H](CCC(N)=O)C(=O)N[C@@H](C)C(=O)N[C@@H](C)C(=O)NC(C)(C)C(=O)N[C@@H](CCC(=O)O)C(=O)N[C@@H](Cc1ccccc1)C(=O)N[C@H](C(=O)N[C@@H](CC(N)=O)C(=O)N[C@@H](Cc1c[nH]c2ccccc12)C(=O)N[C@@H](CC(C)C)C(=O)N[C@@H](CC(C)C)C(=O)N[C@@H](C)C(=O)NCC(=O)NCC(=O)N1CCC[C@H]1C(=O)N[C@@H](CO)C(=O)N[C@@H](CO)C(=O)NCC(=O)N[C@@H](C)C(=O)N1CCC[C@H]1C(=O)N1CCC[C@H]1C(=O)N1CCC[C@H]1C(=O)N[C@@H](CO)C(N)=O)C(C)C [Compound 8]	101%	39%	6%	0.154 L/kg	1.2 mL/h/kg
CC[C@H](C)[C@H](NC(=O)[C@H](CO)NC(=O)[C@H](Cc1ccc(O)cc1)NC(=O)[C@H](CC(=O)O)NC(=O)[C@H](CO)NC(=O)[C@@H](NC(=O)[C@H](Cc1ccccc1)NC(=O)[C@@H](NC(=O)CNC(=O)[C@H](CCC(N)=O)NC(=O)C(C)(C)NC(=O)[C@@H](N)Cc1ccc(O)cc1)[C@@H](C)O)[C@@H](C)O)C(=O)N[C@@H](Cc1ccc(O)cc1)C(=O)N[C@@H](CC(C)C)C(=O)N[C@@H](CC(=O)O)C(=O)N[C@@H](CCCCNC(=O)COCCOCCNC(=O)COCCOCCNC(=O)CC[C@H](NC(=O)CCCCCCCCCCCCCCCCC(=O)O)C(=O)O)C(=O)N[C@@H](CCC(N)=O)C(=O)N[C@@H](C)C(=O)N[C@@H](C)C(=O)NC(C)(C)C(=O)N[C@@H](CCC(=O)O)C(=O)N[C@@H](Cc1ccccc1)C(=O)N[C@H](C(=O)N[C@@H](CC(N)=O)C(=O)N[C@@H](Cc1c[nH]c2ccccc12)C(=O)N[C@@H](CC(C)C)C(=O)N[C@@H](CC(C)C)C(=O)N[C@@H](C)C(=O)NCC(=O)NCC(=O)N1CCC[C@H]1C(=O)N[C@@H](CO)C(=O)N[C@@H](CO)C(=O)NCC(=O)N[C@@H](C)C(=O)N1CCC[C@H]1C(=O)N1CCC[C@H]1C(=O)N1CCC[C@H]1C(=O)N[C@@H](CO)C(N)=O)C(C)C [Compound 7]	93%	38%	12%	0.121 L/kg	1.4 mL/h/kg
